The text below walks through data of patent publication US20240217989A1, “Heteroaryl Fluoroalkenes As DGK Inhibitors” (Incyte Corporation, priority 2022, published 2024).

Molecules are shown by their SMILES.

Assay [1] concerns the target T1, DGKα (Homo sapiens, UniProt P23743).
T1 construct: His; purchased Signal Chem D21-10BH
As to the kind of experiment: In vitro DGKα inhibition assay (ADP-Glo). The note with it: His-tagged human recombinant enzyme; 0.1 nM DGKα, 50 μM ATP, 20 μM DLG; 90 minute incubation; ADP-Glo luminescence. The assay is classed as biochemical. The procedure: (§1) The DGKα and DGKζ biochemical reactions were performed using His-tagged human recombinant enzymes (Signal Chem, DGKα, #D21-10BH; DGKζ, #D30-10H)) and DLG (Dilauroyl-sn-glycerol) lipid substrate (Signal Chem, #D430-59). ADP-Glo assay was performed using ADP-Glo™ kinase Assay kit (Promega, #V9104). The reactions were carried out in assay buffer containing 40 mM Tris, pH 7.5, 0.1% CHAPS, 0.1% Prionex, 40 mM NaCl, 5 mM MgCl2, 1 mM CaCl2, and 1 mM DTT. DGKα reactions contained 0.1 nM DGKα, 50 μM ATP, and 20 μM DLG. And DGKζ reactions contained 0.4 nM DGKζ, 30 μM ATP, and 20 μM DLG. For compound inhibition studies, 40 nL test compound in DMSO was added to wells of white polystyrene plates in 384-well (Greiner, #784075) or 1536-well format (Greiner, #782075). Compounds were added with top concentration of 2 mM with 11 point, 3-fold dilution series. Enzyme solution (contains 2× DGK enzyme concentration in 1× assay buffer) was added to the plate in 2 μL/well volume, followed by 2 μL/well of substrate solution (contains 2× concentration of ATP and DLG substrate in 1× assay buffer). Plates were then centrifuged for 1 min at 1200 RPM and sealed or lidded. For 4 μL reaction volume, test compounds were therefore diluted 100× to final top concentration of 20 μM. After 90 minute incubation, reactions were quenched by addition of 2 μL/well Promega ADP-Glo Reagent, followed by centrifugation and lidding. After 60 min incubation, 2 μL/well Promega Kinase Detection Reagent was added, plates centrifuged, and incubated for 30 min. Plates were then read using Luminescence method on BMG PHERAstar FSX plate reader. Percent inhibition was calculated and IC50s were determined using 4-parameter fit in Genedata Screener. Labcyte Echo acoustic dispenser was used for compound addition, and Formulatrix Tempest liquid handler was used for all reagent dispenses.
A general note: ADP-Glo first removes unused ATP, then detects ADP through luciferase.

Assay [2] concerns the target DGKζ (Homo sapiens, UniProt Q13574). As to the kind of experiment: In vitro DGKζ inhibition assay (ADP-Glo). The assay is classed as biochemical. The note with it: His-tagged human recombinant enzyme; 0.4 nM DGKζ, 30 μM ATP, 20 μM DLG; 90 minute incubation; ADP-Glo luminescence. The method, then:
as §1

T1 sequence (P23743 whole entry): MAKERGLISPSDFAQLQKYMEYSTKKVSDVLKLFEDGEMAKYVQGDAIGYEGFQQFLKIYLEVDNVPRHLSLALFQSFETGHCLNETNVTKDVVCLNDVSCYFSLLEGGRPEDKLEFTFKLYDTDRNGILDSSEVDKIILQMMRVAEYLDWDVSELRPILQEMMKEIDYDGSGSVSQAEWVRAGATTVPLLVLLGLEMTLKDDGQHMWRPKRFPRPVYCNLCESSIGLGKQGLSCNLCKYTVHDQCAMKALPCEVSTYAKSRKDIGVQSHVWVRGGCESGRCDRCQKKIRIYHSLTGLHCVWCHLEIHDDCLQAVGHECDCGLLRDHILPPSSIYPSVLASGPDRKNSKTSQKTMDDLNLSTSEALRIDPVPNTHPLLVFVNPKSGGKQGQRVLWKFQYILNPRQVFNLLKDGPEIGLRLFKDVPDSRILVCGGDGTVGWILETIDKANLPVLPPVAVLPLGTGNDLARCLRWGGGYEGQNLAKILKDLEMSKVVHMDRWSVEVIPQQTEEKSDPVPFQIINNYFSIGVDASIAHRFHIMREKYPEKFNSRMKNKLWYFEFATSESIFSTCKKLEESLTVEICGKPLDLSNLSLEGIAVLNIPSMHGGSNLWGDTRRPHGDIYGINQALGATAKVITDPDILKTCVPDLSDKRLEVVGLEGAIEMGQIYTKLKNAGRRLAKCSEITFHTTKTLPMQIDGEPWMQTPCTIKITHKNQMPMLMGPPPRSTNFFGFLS
Chain of DGKζ (Q13574 whole entry): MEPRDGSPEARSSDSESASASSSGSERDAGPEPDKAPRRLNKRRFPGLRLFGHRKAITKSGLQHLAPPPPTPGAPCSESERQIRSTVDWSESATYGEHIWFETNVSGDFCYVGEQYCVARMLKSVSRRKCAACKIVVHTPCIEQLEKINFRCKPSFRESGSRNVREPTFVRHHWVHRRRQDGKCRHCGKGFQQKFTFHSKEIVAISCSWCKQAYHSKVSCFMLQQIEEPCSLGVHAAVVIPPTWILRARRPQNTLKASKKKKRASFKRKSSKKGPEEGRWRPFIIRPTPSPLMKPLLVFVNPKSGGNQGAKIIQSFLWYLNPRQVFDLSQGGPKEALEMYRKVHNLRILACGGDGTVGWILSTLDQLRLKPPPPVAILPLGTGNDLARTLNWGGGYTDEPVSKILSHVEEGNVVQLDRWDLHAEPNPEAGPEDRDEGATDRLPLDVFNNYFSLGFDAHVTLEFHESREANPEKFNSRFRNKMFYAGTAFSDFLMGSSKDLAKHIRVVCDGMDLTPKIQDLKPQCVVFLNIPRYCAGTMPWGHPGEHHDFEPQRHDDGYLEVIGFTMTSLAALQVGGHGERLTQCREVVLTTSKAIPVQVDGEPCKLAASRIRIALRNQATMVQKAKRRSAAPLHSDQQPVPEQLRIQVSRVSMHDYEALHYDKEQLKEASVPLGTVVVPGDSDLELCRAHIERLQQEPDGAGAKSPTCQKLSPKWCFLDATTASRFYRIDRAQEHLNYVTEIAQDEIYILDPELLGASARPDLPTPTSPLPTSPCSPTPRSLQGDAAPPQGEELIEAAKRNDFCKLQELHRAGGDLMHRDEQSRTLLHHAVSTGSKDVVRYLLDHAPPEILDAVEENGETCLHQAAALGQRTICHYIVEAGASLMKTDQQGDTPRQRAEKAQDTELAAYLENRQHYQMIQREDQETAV

Broadly, the IC50 is the concentration needed to halve the response being measured. Consider `CCN1CCC2(CCCN(c3c(/C=C(\F)c4nccc(-c5ccnnc5)n4)ccc(Oc4ccccc4F)c3C(F)(F)F)C2)CC1` [Example 40, (Z)-9-Ethyl-2-(6-(2-fluoro-2-(4-(pyridazin-4-yl)pyrimidin-2-yl)vinyl)-3-(2-fluorophenoxy)-2-(trifluoromethyl)phenyl)-2,9-diazaspiro[5.5]undecane], for which the concentration for half-maximal inhibition (IC50) in assay [1] and in assay [2] was no more than 20 nM each time.
As to `CCN1CCC2(CC1)CN(c1c(/C=C(\F)c3nccc(-c4ccnnc4)n3)ccc(Oc3ccccc3F)c1C(F)(F)F)CCO2` [Example 41, (Z)-9-Ethyl-4-(6-(2-fluoro-2-(4-(pyridazin-4-yl)pyrimidin-2-yl)vinyl)-3-(2-fluorophenoxy)-2-(trifluoromethyl)phenyl)-1-oxa-4,9-diazaspiro[5.5]undecane], the IC50 in assay [1] and in assay [2] was no more than 20 nM throughout.
Take `F/C(=C\c1ccc(Oc2ccccc2F)c(C(F)(F)F)c1N1CCOC2(CCN(CC3CC3)CC2)C1)c1nccc(-c2ccnnc2)n1` [Example 42, (Z)-9-(Cyclopropylmethyl)-4-(6-(2-fluoro-2-(4-(pyridazin-4-yl)pyrimidin-2-yl)vinyl)-3-(2-fluorophenoxy)-2-(trifluoromethyl)phenyl)-1-oxa-4,9-diazaspiro[5.5]undecane]: the IC50 in assay [1] and in assay [2] was no more than 20 nM each time.
In the case of `NC[C@@H]1CCCN(c2c(/C=C(\F)c3nccc(-c4ccnnc4)n3)ccc(Oc3ccccc3)c2C(F)(F)F)C1` [Example 43, (S,Z)-(1-(6-(2-Fluoro-2-(4-(pyridazin-4-yl)pyrimidin-2-yl)vinyl)-3-phenoxy-2-(trifluoromethyl)phenyl)piperidin-3-yl)methanamine], the IC50 in assay [1] and in assay [2] was no more than 20 nM in each case.
Take `CCN1CCC2(CCCN(c3c(/C=C(\F)c4cncc(N5CC(F)(F)C5)n4)ccc(Oc4ccccc4F)c3C(F)(F)F)C2)CC1` [Example 44, (Z)-2-(6-(2-(6-(3,3-Difluoroazetidin-1-yl)pyrazin-2-yl)-2-fluorovinyl)-3-(2-fluorophenoxy)-2-(trifluoromethyl)phenyl)-9-ethyl-2,9-diazaspiro[5.5]undecane]: the IC50 in assay [1] and in assay [2] was no more than 20 nM in each case.
With `OCCN1CCC2(CCCN(c3c(/C=C(\F)c4nccc(-c5cnsc5)n4)ccc(Oc4ccccc4F)c3C(F)(F)F)C2)CC1` [Example 45, (Z)-2-(2-(6-(2-Fluoro-2-(4-(isothiazol-4-yl)pyrimidin-2-yl)vinyl)-3-(2-fluorophenoxy)-2-(trifluoromethyl)phenyl)-2,9-diazaspiro[5.5]undecan-9-yl)ethan-1-ol], the IC50 in assay [1] and in assay [2] was no more than 20 nM in each case.
Consider `CCN1CCC2(CCCN(c3c(/C=C(\F)c4nccc(-c5cnsc5)n4)ccc(Oc4ccccc4F)c3C(F)(F)F)C2)CC1` [Example 46, (Z)-4-(2-(2-(2-(9-Ethyl-2,9-diazaspiro[5.5]undecan-2-yl)-4-(2-fluorophenoxy)-3-(trifluoromethyl)phenyl)-1-fluorovinyl)pyrimidin-4-yl)isothiazole], for which the IC50 in assay [1] and in assay [2] was no more than 20 nM in each case.
With `F/C(=C\c1ccc(Oc2cccc(F)c2F)c(C(F)(F)F)c1N1CCCC2(CCN(CC3CC3)CC2)C1)c1cncc(-c2cnsc2)n1` [Example 47, (Z)-4-(6-(2-(2-(9-(Cyclopropylmethyl)-2,9-diazaspiro[5.5]undecan-2-yl)-4-(2,3-difluorophenoxy)-3-(trifluoromethyl)phenyl)-1-fluorovinyl)pyrazin-2-yl)isothiazole], the half-inhibitory concentration (IC50) in assay [1] and in assay [2] was no more than 20 nM throughout.
As for `F/C(=C\c1ccc(OC2CCCCC2)c(C(F)(F)F)c1N1CCCC2(CCN(CC3CC3)CC2)C1)c1cncc(-c2ccnnc2)n1` [Example 48, (Z)-2-(3-(Cyclohexyloxy)-6-(2-fluoro-2-(6-(pyridazin-4-yl)pyrazin-2-yl)vinyl)-2-(trifluoromethyl)phenyl)-9-(cyclopropylmethyl)-2,9-diazaspiro[5.5]undecane], the IC50 in assay [1] and in assay [2] was no more than 20 nM in each case.
With `F/C(=C\c1ccc(Oc2cccc(F)c2F)c(C(F)(F)F)c1N1CCCC2(CCN(CC3CC3)CC2)C1)c1cncc(-c2ccns2)n1` [Example 49, (Z)-5-(6-(2-(2-(9-(Cyclopropylmethyl)-2,9-diazaspiro[5.5]undecan-2-yl)-4-(2,3-difluorophenoxy)-3-(trifluoromethyl)phenyl)-1-fluorovinyl)pyrazin-2-yl)isothiazole], the IC50 in assay [1] and in assay [2] was no more than 20 nM throughout.
Turning to `F/C(=C\c1ccc(OC2CCCCC2)c(C(F)(F)F)c1N1CCCC2(CCN(CC3CC3)CC2)C1)c1nccc(-c2ccnnc2)n1` [Example 50, (Z)-2-(3-(Cyclohexyloxy)-6-(2-fluoro-2-(4-(pyridazin-4-yl)pyrimidin-2-yl)vinyl)-2-(trifluoromethyl)phenyl)-9-(cyclopropylmethyl)-2,9-diazaspiro[5.5]undecane], the IC50 in assay [1] and in assay [2] was no more than 20 nM in each case.
With `F/C(=C\c1ccc(OC2CCCC2)c(C(F)(F)F)c1N1CCCC2(CCN(CC3CC3)CC2)C1)c1nccc(-c2ccnnc2)n1` [Example 51, (Z)-2-(3-(Cyclopentyloxy)-6-(2-fluoro-2-(4-(pyridazin-4-yl)pyrimidin-2-yl)vinyl)-2-(trifluoromethyl)phenyl)-9-(cyclopropylmethyl)-2,9-diazaspiro[5.5]undecane], the IC50 in assay [1] and in assay [2] was no more than 20 nM each time.
Turning to `F/C(=C\c1ccc(OC2CCC2)c(C(F)(F)F)c1N1CCCC2(CCN(CC3CC3)CC2)C1)c1nccc(-c2ccnnc2)n1` [Example 52, (Z)-2-(3-Cyclobutoxy-6-(2-fluoro-2-(4-(pyridazin-4-yl)pyrimidin-2-yl)vinyl)-2-(trifluoromethyl)phenyl)-9-(cyclopropylmethyl)-2,9-diazaspiro[5.5]undecane], the IC50 in assay [1] and in assay [2] was no more than 20 nM throughout.
For `CCN1CCC2(CCCN(c3c(/C=C(\F)c4nccc(-c5ccnnc5)n4)ccc(OC4CCCC4)c3C(F)(F)F)C2)CC1` [Example 53, (Z)-2-(3-(Cyclopentyloxy)-6-(2-fluoro-2-(4-(pyridazin-4-yl)pyrimidin-2-yl)vinyl)-2-(trifluoromethyl)phenyl)-9-ethyl-2,9-diazaspiro[5.5]undecane], the IC50 in assay [1] and in assay [2] was no more than 20 nM each time.
Consider `CCN1CCC2(CCCN(c3c(/C=C(\F)c4nccc(-c5ccnnc5)n4)ccc(OC4CC5CC(C5)C4)c3C(F)(F)F)C2)CC1` (centres unmarked) [Example 54, (Z)-2-(3-(Bicyclo[3.1.1]heptan-3-yloxy)-6-(2-fluoro-2-(4-(pyridazin-4-yl)pyrimidin-2-yl)vinyl)-2-(trifluoromethyl)phenyl)-9-ethyl-2,9-diazaspiro[5.5]undecane], for which the 50% inhibitory concentration (IC50) in assay [1] and in assay [2] was no more than 20 nM each time.
As to `F/C(=C\c1ccc(Oc2ccccc2F)c(C(F)(F)F)c1N1CCCC2(CCN(CC3CC3)CC2)C1)c1nccc(-c2cnsc2)n1` [Example 55, (Z)-4-(2-(2-(2-(9-(Cyclopropylmethyl)-2,9-diazaspiro[5.5]undecan-2-yl)-4-(2-fluorophenoxy)-3-(trifluoromethyl)phenyl)-1-fluorovinyl)pyrimidin-4-yl)isothiazole], the IC50 in assay [1] and in assay [2] was no more than 20 nM in each case.
